Results published in patent US10004711B2, “Methods and compositions comprising 10-hydroxy-2-decenoic acid” (DSM IP ASSETS B.V., priority 2014, dated 2018).

Legend:
stem cells = details: Hattori et al. 2009; cited from earlier work
[1] = test system: Neurons from the brain's hippocampus; experiment: In vitro neurite extension (Map2a staining per neuron); format: cell-based, rat; details: for % Map2a Staining/Neuron: 7 days incubation
Procedure: Neurons from the brain's hippocampus were derived from embryonic day (E17) rat pups and incubated with QBA for 7 days. The cultures were then stained with neuron-specific marker, microtubule associated protein-2a (Map2a) and cell nuclei were stained with 4′,6-diamidino-2-phenylindole (DAPI). Fluorescent images of the staining were then captured with a confocal microscope. The staining was quantitated by dividing the percent area of the Map2a staining by the number of neurons.

[2] = test system: Neurons from the brain's hippocampus; experiment: In vitro hypoxia cell health (calcein AM); format: cell-based, rat; details: for Cell Viability (% Control): hypoxia (<0.3% O2) 48 h
Procedure: Neurons from the brain's hippocampus were derived from E17 pups and incubated for 7 days. The neurons were then pre-treated with QBA for 48 hours and subsequently exposed to a hypoxia (<0.3% O2) for 48 hours. The cultures were stained with calcein AM, a marker of live cells, and with ethidium homodimer, a marker for dead cells. The fluorescence of each of these markers was then quantitated with a fluorimeter.

[3] = test system: Neurons from the brain's hippocampus; experiment: Glutamate toxicity, mitochondrial health (TMRE); format: cell-based, rat; details: for Mitochondrial Health (% Control): glutamate 25 μM 24 h
Procedure: (§1) Neurons from the brain's hippocampus were derived from E17 pups and incubated for 7 days. The cells were pre-treated with QBA for 48 hours and subsequently challenged with glutamate (25 μM) for 24 hours. The cultures were then stained with propidium iodide, a marker of cell death, and with tetramethylrhodamine ethyl ester (TMRE), a marker for mitochondrial health. The fluorescence of each of these markers was then quantitated with a fluorimeter.

[4] = test system: Adult female Long-Evans rats; experiment: Ovulatory cycle status of female rats with abnormal ovulatory cycles; format: in vivo, rat; details: six weeks, count of animals
From the text: Adult female Long-Evans rats (3 months-old) with abnormal ovulatory cycles were fed diets containing 10-Hydroxy-2-decenoic acid (QBA) or no QBA for six (6) weeks. Female rats having normal ovulatory cycle were used as positive controls and were not fed QBA.

[5] = test system: Neurons from the brain's hippocampus; experiment: Glutamate toxicity, cell death (propidium iodide); format: cell-based, rat; details: for Cell Death (% Control): glutamate 25 μM 24 h
Procedure: as §1

[6] = Body weight of aged male rats fed QBA and/or DHA (Example 8); format: in vivo, rat
Procedure: Aged male rats were fed 10-Hydroxy-2-decenoic acid (QBA) for approximately […] from 12-months to 20-months of age and the weight of rats was recorded.

[7] = test system: Human peripheral blood mononuclear cells (PBMC); experiment: Proliferation of PBMC after αCD3/CD28 stimulation; format: cell-based; details: for Cell Numbers: 72 h
Procedure: Human peripheral blood mononuclear cells (PBMC) were pre-treated with 10-Hydroxy-2-decenoic acid (QBA) for 1 hour prior to stimulation with αCD3/CD28. After 72 hours of incubation, cell number was assessed by Cell Titer Glow.

[8] = QBA 10.00 μM pre-treatment 48 h
[9] = QBA 30.00 μM pre-treatment 48 h
[10] = QBA 100.00 μM pre-treatment 48 h

O=C(O)C=CCCCCCCCO [QBA, 10-Hydroxy-2-decenoic acid]
neurogenesis and gliogenesis from stem cells (stem cells): stimulation of neurogenesis from stem cells while inhibiting gliogenesis | % Map2a Staining/Neuron ([1]; QBA 0.10 μM): 0.29% | % Map2a Staining/Neuron ([1]; QBA 0.30 μM): 0.32% | % Map2a Staining/Neuron ([1]; QBA 1.00 μM): 0.30% | % Map2a Staining/Neuron ([1]; QBA 3.00 μM): 0.31% | % Map2a Staining/Neuron ([1]; QBA 10.00 μM): 0.32% | % Map2a Staining/Neuron ([1]; QBA 30.00 μM): 0.32% | % Map2a Staining/Neuron ([1]; QBA 100.00 μM): 0.27% | growth of brain cells in culture ([1]; summary of Table 1): increased the growth of brain cells in culture | Cell Viability (% Control) ([2]; QBA 0.10 μM pre-treatment 48 h): 109.72 % Control | Cell Viability (% Control) ([2]; QBA 0.30 μM pre-treatment 48 h): 112.76 % Control | Cell Viability (% Control) ([2]; QBA 1.00 μM pre-treatment 48 h): 118.80 % Control | Cell Viability (% Control) ([2]; QBA 3.00 μM pre-treatment 48 h): 121.04 % Control | Cell Viability (% Control) [2, 8]: 117.65 % Control | Cell Viability (% Control) [2, 9]: 115.05 % Control | Cell Viability (% Control) [2, 10]: 111.82 % Control | cell health after low oxygen exposure ([2]; summary of Table 5): increased cell health | Mitochondrial Health (% Control) ([3]; QBA 0.10 μM pre-treatment 48 h): 101.94 % Control | Mitochondrial Health (% Control) ([3]; QBA 0.30 μM pre-treatment 48 h): 112.27 % Control | Mitochondrial Health (% Control) ([3]; QBA 1.00 μM pre-treatment 48 h): 110.50 % Control | Mitochondrial Health (% Control) ([3]; QBA 3.00 μM pre-treatment 48 h): 106.39 % Control | Mitochondrial Health (% Control) [3, 8]: 111.02 % Control | Mitochondrial Health (% Control) [3, 9]: 114.72 % Control | Mitochondrial Health (% Control) [3, 10]: 123.80 % Control | cell health after glutamate toxicity ([3]; summary of Table 3): increased cell health | Ovulatory Cycle Status Abnormal ([4]; QBA 0.4 mg/kg/day): 7 | Ovulatory Cycle Status Normal ([4]; QBA 0.4 mg/kg/day): 8 | Ovulatory Cycle Status Abnormal ([4]; QBA 4 mg/kg/day): 9 | Ovulatory Cycle Status Normal ([4]; QBA 4 mg/kg/day): 6 | Ovulatory Cycle Status Abnormal ([4]; QBA 12 mg/kg/day): 4 | Ovulatory Cycle Status Normal ([4]; QBA 12 mg/kg/day): 11 | Ovulatory Cycle Status Abnormal ([4]; QBA 24 mg/kg/day): 12 | Ovulatory Cycle Status Normal ([4]; QBA 24 mg/kg/day): 3 | Cell Death (% Control) ([5]; QBA 0.10 μM pre-treatment 48 h): 92.52 % Control | Cell Death (% Control) ([5]; QBA 0.30 μM pre-treatment 48 h): 90.43 % Control | Cell Death (% Control) ([5]; QBA 1.00 μM pre-treatment 48 h): 88.78 % Control | Cell Death (% Control) ([5]; QBA 3.00 μM pre-treatment 48 h): 94.07 % Control | Cell Death (% Control) [5, 8]: 92.78 % Control | Cell Death (% Control) [5, 9]: 90.69 % Control | Cell Death (% Control) [5, 10]: 91.76 % Control | cell death after glutamate toxicity ([5]; summary of Table 2): decreased cell death | Avg Wt ([6]; QBA 12 mg/kg/day, study day 0): 547.0 g | Avg Wt ([6]; QBA 12 mg/kg/day, study day 4): 560.9 g | Avg Wt ([6]; QBA 12 mg/kg/day, study day 11): 571.5 g | Avg Wt ([6]; QBA 12 mg/kg/day, study day 18): 580.1 g | Avg Wt ([6]; QBA 12 mg/kg/day, study day 25): 584.5 g | Avg Wt ([6]; QBA 12 mg/kg/day, study day 32): 590.8 g | Avg Wt ([6]; QBA 12 mg/kg/day, study day 39): 591.7 g | Avg Wt ([6]; QBA 12 mg/kg/day, study day 46): 594.3 g | Avg Wt ([6]; QBA 12 mg/kg/day, study day 53): 595.4 g | Avg Wt ([6]; QBA 12 mg/kg/day, study day 60): 598.7 g | Avg Wt ([6]; QBA 12 mg/kg/day, study day 67): 597.8 g | Avg Wt ([6]; QBA 12 mg/kg/day, study day 74): 603.7 g | Avg Wt ([6]; QBA 12 mg/kg/day, study day 81): 607.3 g | Avg Wt ([6]; QBA 12 mg/kg/day, study day 88): 608.5 g | Avg Wt ([6]; QBA 12 mg/kg/day, study day 95): 612.8 g | Avg Wt ([6]; QBA 12 mg/kg/day, study day 102): 614.5 g | Avg Wt ([6]; QBA 12 mg/kg/day, study day 109): 617.0 g | Avg Wt ([6]; QBA 12 mg/kg/day, study day 116): 617.2 g | Avg Wt ([6]; QBA 12 mg/kg/day, study day 123): 617.3 g | Avg Wt ([6]; QBA 12 mg/kg/day, study day 130): 616.9 g | Avg Wt ([6]; QBA 12 mg/kg/day, study day 137): 621.5 g | Avg Wt ([6]; QBA 12 mg/kg/day, study day 144): 619.1 g | Avg Wt ([6]; QBA 12 mg/kg/day, study day 151): 620.5 g | Avg Wt ([6]; QBA 24 mg/kg/day, study day 0): 551.5 g | Avg Wt ([6]; QBA 24 mg/kg/day, study day 4): 566.8 g | Avg Wt ([6]; QBA 24 mg/kg/day, study day 11): 573.4 g | Avg Wt ([6]; QBA 24 mg/kg/day, study day 18): 585.7 g | Avg Wt ([6]; QBA 24 mg/kg/day, study day 25): 593.1 g | Avg Wt ([6]; QBA 24 mg/kg/day, study day 32): 596.0 g | Avg Wt ([6]; QBA 24 mg/kg/day, study day 39): 599.7 g | Avg Wt ([6]; QBA 24 mg/kg/day, study day 46): 601.5 g | Avg Wt ([6]; QBA 24 mg/kg/day, study day 53): 601.8 g | Avg Wt ([6]; QBA 24 mg/kg/day, study day 60): 606.5 g | Avg Wt ([6]; QBA 24 mg/kg/day, study day 67): 607.5 g | Avg Wt ([6]; QBA 24 mg/kg/day, study day 74): 611.8 g | Avg Wt ([6]; QBA 24 mg/kg/day, study day 81): 614.5 g | Avg Wt ([6]; QBA 24 mg/kg/day, study day 88): 617.8 g | Avg Wt ([6]; QBA 24 mg/kg/day, study day 95): 620.2 g | Avg Wt ([6]; QBA 24 mg/kg/day, study day 102): 623.9 g | Avg Wt ([6]; QBA 24 mg/kg/day, study day 109): 627.4 g | Avg Wt ([6]; QBA 24 mg/kg/day, study day 116): 630.3 g | Avg Wt ([6]; QBA 24 mg/kg/day, study day 123): 629.2 g | Avg Wt ([6]; QBA 24 mg/kg/day, study day 130): 630.3 g | Avg Wt ([6]; QBA 24 mg/kg/day, study day 137): 633.5 g | Avg Wt ([6]; QBA 24 mg/kg/day, study day 144): 642.1 g | Avg Wt ([6]; QBA 24 mg/kg/day, study day 151): 638.6 g | body weight versus control, repeated measures ANOVA ([6]; all doses versus 0 mg/kg/day QBA or 0 mg/kg/day QBA+0.07% DHA): small but significant increase | body weight maintenance in aging male rats ([6]; summary of Table 14): helped to maintain healthy body weight | Cell Numbers ([7]; QBA 50 μM 1 h before αCD3/CD28): 517020 | Cell Numbers ([7]; QBA 100 μM 1 h before αCD3/CD28): 472678 | Cell Numbers ([7]; QBA 500 μM 1 h before αCD3/CD28): 442008 | Cell Numbers ([7]; QBA 1000 μM 1 h before αCD3/CD28): 344026 | Cell Numbers ([7]; QBA 2500 μM 1 h before αCD3/CD28): 104291 | Cell Numbers ([7]; QBA 5000 μM 1 h before αCD3/CD28): 1601 | concentrations that reduced the proliferation of human immune cells ([7]; summary of Table 11): greater than 500 μM
